Measurements taken from publication PMC4066839 (MedChemComm, 2014).

Tested on: C. neoformans
Assay: in vitro growth inhibition
Format: cell-based, Cryptococcus neoformans
Conditions: highest tested concentration 20 μg/mL; NA = not active

C. neoformans IC50 (concentration that affords 50% inhibition of growth): inactive
Compound: COc1ccc(-c2nc(C[C@H](N)C(=O)N[C@@H](CCCNC(=N)N)C(=O)NCc3ccccc3)c[nH]2)cc1 [Peptide 5d]
